“Also recorded” adds a separate entry of the source.
What was measured:
[1] = Mass spectrometry of compound exposure in zebrafish embryos; assay type: in vivo; details: for detection of compound in embryos by MS: bathing, 100 nM or 1 μM, five days
Protocol: FIG. 5: Successful delivery of small molecules into zebrafish embryos. (a) Experimental design and sample preparation for the mass spectrometry (MS) analysis of compound concentration. (b) Quantitative MS analysis results of compound exposure in embryos. The right-most two columns give the concentrations of each compound detected by MS in zebrafish, quantifying in vivo exposures resulting from egg water compound doses of 100 nM and 1 μM.
For this purpose, mass spectrometry (MS) was performed in embryos treated with each of compounds 2 and 8. Wild-type embryos were treated with 100 nM (the concentration used for the rescue experiments) or 1 μM (as a positive detection threshold given that the intracellular concentration of each compound is unknown at the beginning of the experiment). After five days of treatment, embryos were harvested and subjected to MS analysis (FIG. 5A).
WT EK embryos were transferred to a 12-well plate at the 8-cell stage and bathed in egg water containing 0.001% DMSO or 100 nM of each compound (n=30/condition). Embryos were incubated at 28° C.; egg water containing compound was refreshed every 24 hours until harvest. Compound exposure was assessed essentially as described (see, Berghmans, S. et al. J Pharmacol Toxicol Methods 58, 59-68 (2008)); larvae were anaesthetized on ice, washed once with fresh compound-free ice-cold egg water, washed once with ice-cold PBS, and then transferred to a microfuge tube and centrifuged briefly before removing all excess liquid. Samples were macerated using a plastic pestle and frozen at −20° C. prior to analysis. Mass spectrometry analysis was conducted at Covance Laboratories (Cary, N.C., USA). Briefly, the macerated larvae were diluted in 1 ml water/acetonitrile (50/50), sonicated for 3×10 s and vortexed. For all compounds, a control sample containing embryos exposed to 0.001% DMSO was analyzed as a control. Calibration curves were generated by spiking aliquots of control zebrafish homogenate (prepared as described above) with known amounts of compound 29 (N3521-4-2).

[2] = Solubility test in egg water; assay type: physicochemical; details: DMSO stock diluted in water (100×)
Protocol: To guard against possible bias, the tool and negative control compounds were interspersed across the experiment and the zebrafish phenotyping team was blinded to the identity of each compound. Typical of small molecule storage, each of the 29 compounds was dissolved in dimethyl sulfoxide (DMSO). Therefore, such compounds were first diluted in water (100×) and its solubility tested in egg water; three compounds were insoluble and were thus removed from further testing (see, FIG. 1A). Next, each compound was diluted serially with egg water and toxicity tested by assaying the percentage of abnormal or dead embryos across three different concentrations (10 μM, 1 μM, 100 nM; FIG. 1B).

[3] = system: kmt2d+/−×kmt2d+/− progeny; assay: Jaw defect in stable kmt2d mutant intercross progeny; assay type: in vivo, zebrafish; details: 100 mM dmDf, 5 dpf
Source text: FIG. 12: Treatment with dmDf rescues the defects of stable kmt2d mutant. kmt2d+/− adults were in-crossed and the embryos were then collected at 1 dpf, 2 dpf and 5 dpf to assess dmDf efficacy. […] Error bars show SEM (standard error of the mean).
Although the small molecule testing data in CRISPR F0 mosaic models are consistent with morphant phenotypes (and rescue), experiments recognized the necessity of testing the potential efficacy of dmDf in a stable genetic model that is a better genotypic proxy to human patients. […] In addition to examining proliferation of cells in the brain, experiments assessed whether neural differentiation is affected (see, Van Laarhoven, P. M. et al. Hum Mol Genet 24, 4443-53 (2015)).
For convergence and extension (CE) phenotyping, embryos were scored as described (see, Leitch, C. C. et al. Nat Genet 40, 443-8 (2008)) at the 8-10 somite stage, and images were captured using an AZ100 microscope and NIS Elements software (Nikon). […] The distance between Meckel's (MK) and ceratohyal (CH) cartilages was measured on ventral bright field images with Image J (NIH). […] Fluorescence signal on embryo heads was imaged with the Nikon AZ100 microscope and DS-Qi1MC digital camera using […] Z-stacks to generate extended depth of focus images. Cell numbers were quantified using the ImageJ ICTN plugin (NIH). […]

Row | Compound | detection of compound in embryos by MS [1] | solubility tested in egg water [2] | mandibular length / jaw defect [3] | exposure of inhibitor in embryos (MS quantitation) ([1]; 100 nM dose) | concentration at 5 days ([1]; EK (wild-type), zebrafish, whole embryo/larva homogenate, other: bathing in egg water containing compound, egg water dose 100 nM, read-out: effective in vivo exposure (MS))
1 | CC[C@@H](CO)Nc1ncc(C)c(-c2c[nH]c(C(=O)N[C@H](CO)c3cccc(Cl)c3)c2)n1 [Compound 2, N-((S)-1-(3-chlorophenyl)-2-hydroxyethyl)-4-(2-(((S)-1-hydroxybutan-2-yl)amino)-5-methylpyrimidin-4-yl)-1H-pyrrole-2-carboxamide] | Detectable concentrations |  |  |  | 
2 | CC(C)c1nc(-c2cccc(NS(=O)(=O)c3c(F)cccc3F)c2F)c(-c2ccnc(N)n2)s1 [Compound 8, desmethyl-Dabrafenib] | Detectable concentrations | soluble | rescues significantly; also recorded: rescue of the mandibular length | sub-nanomolar | 0.26 nM

— US20210196714A1, “COMPOSITIONS AND METHODS FOR TREATING DISORDERS CHARACTERIZED WITH ABERRANT RAS/MAPK SIGNALING” (Duke University, priority 2018, published 2021)
